Laboratory results as given in patent US9795675B2, “Light-activatable polymeric nanoparticles” (CNC—CENTRO DE NEUROCIÊNCIAS E BIOLOGIA CELULAR, priority 2013, dated 2017).

Columns and labels:
[1] = system: U937 cells; assay: NP uptake in the presence of endocytosis inhibitors (FACS); type: cell-based, human; conditions: dynasor 80 μM; TRITC-labelled NPs 5 μg/mL
Protocol: (§1) Uptake mechanisms analysis. For determining the uptake mechanism(s), we first perform NP uptake assays in the presence of endocytosis inhibitors. U937 cells were cultured on 24 well plates (1×10^5 cells/well) and inhibited by one of the following chemicals during 30 min before adding a suspension of TRITC-labelled NPs (5 μg/mL): dynasor (80 μM), cytochalasin D (10 μM), nocodazole (50 uM), filipin III (100 μM) and polyinosinic acid (100 μg/mL). The inhibitor concentrations were based in values reported in literature and further validated by us to have no cytotoxic effect over the period of the assay (6 h), as confirmed by ATP assay. The incubation of the cells with NPs for different times was performed in the presence of the inhibitor. As controls, we used cells without NPs and cells incubated with NPs without inhibitor. At the end of each time point, cells were centrifuged at 1300 rpm, 2° C. for 5 min with PBS, washed one time with cold trypan blue solution (200 μL; 600 μg/mL), re-washed 3 times with cold PBS and then resuspended in PBS containing 2.5% FBS (500 μL) for FACS analysis. A total of 10,000 events were obtained per measurement. To validate the inhibitory activity of dynasor we performed uptake studies of FITC-labeled transferrin, known to selectively enter cells via clatherin-mediated endocytosis. […] Cells were then evaluated as before.

[2] = system: U937 cells; assay: Uptake of FITC-labeled transferrin (validation of dynasor); type: cell-based, human; conditions: dynasor 80 μM, 30 min pre-incubation
Protocol: as §1

[3] = system: K562, NB4 and U937 cells; assay: Retinoic acid uptake assay ([3H]RA, scintillation counting); type: cell-based, human
Protocol: Experiments were initiated by the addition of medium containing [^3H]RA (1 μM and 10 μM) and [^3H]RA-NPs (1 μg/mL and 10 μg/mL) to cultures (60,000 cells/condition, 24-well plate, 1 mL) of K562, NB4 and U937 cells. After experimental incubations with medium containing [^3H]RA and [^3H]RA-NPs for 4, 24 and 72 hours, cells were collected to eppendorfs, washed with PBS by centrifugation (1500 rpm, 5 min, 2 times) to remove non-internalized [^3H]RA and then resuspend in 100 μL of lysis buffer (see above) and kept on ice until scintillation counting procedure.
The titrium content of the samples was assayed by adding 100 μL aliquot of the samples to 1 mL liquid scintillation fluid (Packard Ultima Gold) and counted in a TriCarb 2900 TR Scintillation analyzer (Perkin Elmer). All conditions were performed in triplicate.

[4] = system: patients; conditions: cited from earlier work

With `O=C(N/N=C/c1ccc(O)c(O)c1)c1cc2ccccc2cc1O` [Dynasore] the “reduction of the uptake of NPs compared to control cells” value [1] was 90% and the “internalisation of FITC-labeled transferrin” value [2] was “inhibits the internalisation of transferrin”.

In the case of `CC1=C(/C=C/C(C)=C/C=C/C(C)=C/C(=O)O)C(C)(C)CCC1` [RA, retinoic acid], the “time of peak RA uptake” value [3] is given as 24 h, the “patients receiving RA who develop serious complications including the differentiation syndrome” value ([4]; human, in vivo) is given as “approximately 25%” and the “patients in whom the dose of RA leads to hyperleukocytosis and respiratory distress syndrome” value ([4]; up to) is given as 20-30%.

In the case of `CC1=C(/C=C/C(C)=C/C=C/C(C)=C/C(=O)O)C(C)(C)CCC1` [[^3H]RA], the “uptake yield of [^3H]RA” value ([3]; [^3H]RA 1 and 10 uM or [^3H]RA-NPs 1 and 10 ug/mL, for 4 hours, measured after 24 and 72 hours) is reported as “below 2%”.
